Measured values as given in publication PMC11681159, “Bee pollen peptides as potent tyrosinase inhibitors with anti-melanogenesis effects in murine b16f10 melanoma cells and zebrafish embryos” (Scientific Reports, 2024).

How the values were obtained:
zebrafish embryos = assay: Melanin inhibitory assay in zebrafish embryos; type: in vivo; conditions: PTU 0.0015%, vs control
Protocol: To perform the test of acute toxicity, a total of 20 fertilized zebrafish embryos were collected at around 4 h after fertilization and added to each well in a 12-well plate. These embryos then underwent treatment using different quantities of […] (2, 4, 6, 8, and 10 µM), while the negative control was distilled water and the positive control was 3,4-dichloroaniline. Incubation of the plate then took place until 48 h after fertilization at a temperature of 28.5 ± 1 °C. The test solutions were refreshed at 24 h after fertilization to allow the counting and removal of any dead embryos. Following exposure, a stereomicroscope (SZX16, Olympus, Japan) was used to record the embryo morphological effects. Meanwhile, a slightly modified version of a previously described melanin inhibitory assay was carried out[30]. The embryos were then homogenized using a cold lysis buffer (PBS pH 7.4, 1% Triton-X and 1% DMSF). The lysate then underwent 10 min of sonication before being placed in a centrifuge for 5 min at 10,000×g. The pellet was then removed from the centrifuge and dissolved in 200 µL of 1 N NaOH for 1 h at a temperature of 85 °C. This sample was subsequently vortexed and placed in the centrifuge for a further 5 min at 10,000×g. A microplate reader (Spectramax M5, Molecular Devices, USA) was then employed to determine the supernatant absorbance at 490 nm. Melanin content levels could then by calibrated by using the protein amount, and were reported in the form of a percentage compared to the untreated control. In the melanin inhibitory assay, the positive control used was phenylthiourea (PTU) solution (0.0015%).

B16F10 melanoma cells = assay: Melanin content assay in B16F10 cells; type: cell-based, mouse; conditions: arbutin 0.2 mM, 48 h, 405 nm
Protocol: In order to assess melanin content, culture flasks were used to grow B16F10 cells (1 × 10^5 cells/flask) for 24 h. […] Cell harvesting was conducted by trypsinization and the cells were then rinsed twice in cold PBS. The cell pellets were then dissolved in 0.3 mL of 1 N NaOH to produce solutions which were heated to 90 °C for a one-hour period. The lysates were then placed in a centrifuge for 10 min at 3,000 × g whereupon a microplate reader was used to assess the melanin quantity at 405 nm. The protein content in the supernatant was evaluated using the Bradford protein assay with the findings presented in the form of a percentage of the control. Arbutin (0.2 mM) served as the positive control. Each trial was carried out in triplicate, with results presented in the form of mean ± standard deviation.

skin = conditions: treatment of hyperpigmentation; cited from earlier work
Description: In producing cosmetic products and functional foods, safety is of the highest priority during the formulation process.

mushroom TYR = tested on: mushroom TYR; parameters: method as in PMID 19440221; conditions: cited from earlier work
Description: Abu Ubeid et al.[51]. conducted the screening of an internal library to identify the active oligopeptides capable of inhibiting TYR in mushrooms.

[1] = presence of water or oxygen; cited from earlier work
Description: (§1) One role of TYR, which is a binuclear copper enzyme, is to regulate melanogenesis. It acts as a catalyst for the hydroxylation of tyrosine and the oxidation of 3, 4-dihydroxyphenylalanine (L-DOPA) to o-dopaquinone which are the rate limiting reactions which occur during the synthesis of melanin. Skin color is dependent upon the level of melanin synthesis as well as the type of melanin and the way it is distributed through the keratinocytes. Achieving effective inhibition of TYR with minimal adverse side effects has remained a longstanding challenge within the realms of dermatological and cosme ...

cells = conditions: cited from earlier work
Description: as §1

A375 melanoma cells = conditions: 0.5-1 mM; cited from earlier work
TYR = conditions: cited from earlier work
Description: TIPs are now widely prepared via enzymatic hydrolysis, due to the ease of controlling the process and the absence of extreme reaction conditions. There are many commercially produced enzymes which are available to support TIP production, among which are trypsin, chymotrypsin, flavourzyme, alkaline protease, neutral protease, papain, and so forth. It is understood that different enzymes can differ in their hydrolytic impact upon a given material because the binding specificity between substrate and enzymes will vary. […] Further fractionation of the MW < 0.65 kDa ultrafiltrated fraction can be carried out by SEC using a Superdex 30 Increase column with a separation range of 100-7,000 Da. […] Where hydrophobic amino acids appear at each end of the peptide chain, this increases the interactivity with the copper active sites of TYR. Furthermore, it was reported by Wang et al.[33]. that a low-molecular-weight (700-1,700 Da) gelatin hydrolysate derived from the sea cucumber wall offered 55.7% hydrophobic amino acids. While the exterior environme ... || (+ 2 further places)

TYR (mono-phenolase) = conditions: cited from earlier work
Description: In order to check our own hypothesis concerning the ability of the peptide VY-9 to inhibit TYR, we created a synthetic peptide with a matching sequence to test the inhibition in the case of both mono-phenolase and di-phenolase forms. […] Ge et al.[34]. noting that hydrophobic interactions with hydrophobic side chains located at the active sites of TYR could be increased by inhibitors which have aromatic ring structures. […] For instance, Schurink et al.[38]. performed the screening of seven different peptides offering TYR inhibition from protein ... || In order to understand the VY-9 peptide mechanism for TYR inhibition, the inhibition mode was investigated through the analysis of Lineweaver-Burk plots. The plots can be seen in Fig. 3a-d, where four lines of differing gradients meet at the same intersection point for the vertical coordinate at varying concentrations of the VY-9 peptide.

TYR (di-phenolase) = conditions: cited from earlier work
Description: In order to check our own hypothesis concerning the ability of the peptide VY-9 to inhibit TYR, we created a synthetic peptide with a matching sequence to test the inhibition in the case of both mono-phenolase and di-phenolase forms. […] The plots can be seen in Fig. 3a-d, where four lines of differing gradients meet at the same intersection point for the vertical coordinate at varying concentrations of the VY-9 peptide.

melanoma cells = conditions: 500 µM; cited from earlier work
human TYR = tested on: human TYR; parameters: method as in PMID 19440221; conditions: cited from earlier work
human melanocytes = tested on: human melanocytes; parameters: method as in PMID 19440221; conditions: 100 µM, seven days; cited from earlier work

## NC(=S)Nc1ccccc1 [PTU, phenylthiourea, reference compound]
Zebrafish embryos
  melanin content: differed significantly (p < 0.01) to the control

## OC[C@H]1O[C@@H](Oc2ccc(O)cc2)[C@H](O)[C@@H](O)[C@@H]1O [arbutin, reference compound]
B16F10 melanoma cells
  reduction in melanin content: 54.34%

## Oc1ccc(O)cc1 [hydroquinone]
skin
  undesirable side effects: contact dermatitis, irritation of the skin, and exogenous ochronosis
Mushroom TYR
  IC50: 680 µM

## O=c1cc(CO)occ1O [kojic acid]
[1]
  stability: instability in the presence of water or oxygen
cells
  toxicity towards cells: high degree of toxicity towards cells

## O=S(O)O [sulfite]
[1]
  stability: instability in the presence of water or oxygen
cells
  toxicity towards cells: high degree of toxicity towards cells

## ECGYF
A375 melanoma cells
  melanin level in A375 cells: able to lower the melanin levels in cultured A375 melanoma cells more effectively than arbutin or glutathione
TYR
  TYR inhibition vs arbutin and glutathione: exceeded those of arbutin and glutathione
TYR; read-out: TYR inhibition IC50
  IC50: 460 µM

## GYSLGNWVCAAK [obtained from egg white protein]
TYR
  inhibition type: competitively inhibit TYR

## HGGEGGRPY [CT-1, rice bran protein hydrolysate peptide]
TYR (mono-phenolase)
  TYR inhibition, mono-phenolase tyrosine substrate reaction: notable TYR inhibition
TYR (di-phenolase)
  TYR inhibition, di-phenolase L-DOPA substrate reaction: did not do so in the di-phenolase L-DOPA substrate reaction

## HPTSEVY [CT-3, rice bran protein hydrolysate peptide]
TYR (mono-phenolase)
  TYR inhibition, mono-phenolase tyrosine substrate reaction: notable TYR inhibition
TYR (di-phenolase)
  TYR inhibition, di-phenolase L-DOPA substrate reaction: did not do so in the di-phenolase L-DOPA substrate reaction

## IIPFIF
TYR
  IC50 against TYR: 6160 µg/mL

## ILFTLL
TYR
  IC50 against TYR: 9250 µg/mL

## IQSPHFF [from Phage Display Library]
TYR (di-phenolase); competitive
  Ki: 765 µM
TYR (di-phenolase); di-phenolase
  inhibition type: competitive inhibitor

## KFEKKFEK [oligopeptide of an internal library]
Mushroom TYR
  IC50: 3600 µM

## LQPSHY [CT-2, rice bran protein hydrolysate peptide]
TYR (mono-phenolase)
  TYR inhibition, mono-phenolase tyrosine substrate reaction: notable TYR inhibition
Melanoma cells
  cytotoxic effects: no cytotoxic effects were recorded
  melanogenesis inhibition: > 50%
TYR (di-phenolase)
  TYR inhibition, di-phenolase L-DOPA substrate reaction: did not do so in the di-phenolase L-DOPA substrate reaction

## MRSRERSSWY [TH10]
TYR (mono-phenolase); read-out: IC50 (tyrosine substrate of TYR)
  IC50: 102 µM

## RADSRADC [oligopeptide of an internal library]
Mushroom TYR
  IC50: 123 µM
Human TYR
  human TYR inhibition vs hydroquinone: to a greater extent than was the case with hydroquinone
Human melanocytes
  reduction in melanin content: 27%

## SFLLRN [oligopeptide of an internal library]
Mushroom TYR
  IC50: 8000 µM

## TIPPPT
TYR
  IC50 against TYR: 7590 µg/mL

## YRSRKYSSWY [P4, peptide from an earlier study]
Mushroom TYR
  IC50: 40 µM
Human TYR
  human TYR inhibition vs hydroquinone: to a greater extent than was the case with hydroquinone
Human melanocytes
  reduction in melanin content: 43%
